# According to patent US10925876B2, “Methods for using triazolo-pyrazinyl soluble guanylate cyclase activators in fibrotic disorders” (Merck Sharp & Dohme Corp., priority 2016, dated 2021):
# Molecular target: T1, sGC α1/β1 heterodimer (Homo sapiens, UniProt Q02108+Q02153)
# T1 construct: expressed in transfected cells
# T1 sequence (Q02108 1-690): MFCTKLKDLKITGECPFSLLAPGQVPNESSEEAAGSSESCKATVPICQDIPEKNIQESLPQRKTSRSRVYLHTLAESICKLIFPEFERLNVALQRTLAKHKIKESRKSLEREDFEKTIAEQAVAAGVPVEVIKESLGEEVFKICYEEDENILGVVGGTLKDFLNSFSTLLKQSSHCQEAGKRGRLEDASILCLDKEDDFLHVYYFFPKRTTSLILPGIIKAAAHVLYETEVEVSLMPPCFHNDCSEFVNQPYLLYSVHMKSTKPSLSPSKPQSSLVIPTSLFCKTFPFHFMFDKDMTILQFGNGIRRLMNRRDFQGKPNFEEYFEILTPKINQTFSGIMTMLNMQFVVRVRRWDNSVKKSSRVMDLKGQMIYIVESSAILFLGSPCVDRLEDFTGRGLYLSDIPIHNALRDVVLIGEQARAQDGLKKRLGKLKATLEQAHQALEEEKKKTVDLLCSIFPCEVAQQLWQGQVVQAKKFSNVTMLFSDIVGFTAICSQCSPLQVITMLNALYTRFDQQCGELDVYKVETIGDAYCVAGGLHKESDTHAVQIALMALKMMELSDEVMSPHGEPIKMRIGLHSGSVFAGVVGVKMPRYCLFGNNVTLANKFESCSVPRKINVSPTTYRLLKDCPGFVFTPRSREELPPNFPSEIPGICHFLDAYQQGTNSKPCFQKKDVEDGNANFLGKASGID
# T1 sequence (Q02153 1-619): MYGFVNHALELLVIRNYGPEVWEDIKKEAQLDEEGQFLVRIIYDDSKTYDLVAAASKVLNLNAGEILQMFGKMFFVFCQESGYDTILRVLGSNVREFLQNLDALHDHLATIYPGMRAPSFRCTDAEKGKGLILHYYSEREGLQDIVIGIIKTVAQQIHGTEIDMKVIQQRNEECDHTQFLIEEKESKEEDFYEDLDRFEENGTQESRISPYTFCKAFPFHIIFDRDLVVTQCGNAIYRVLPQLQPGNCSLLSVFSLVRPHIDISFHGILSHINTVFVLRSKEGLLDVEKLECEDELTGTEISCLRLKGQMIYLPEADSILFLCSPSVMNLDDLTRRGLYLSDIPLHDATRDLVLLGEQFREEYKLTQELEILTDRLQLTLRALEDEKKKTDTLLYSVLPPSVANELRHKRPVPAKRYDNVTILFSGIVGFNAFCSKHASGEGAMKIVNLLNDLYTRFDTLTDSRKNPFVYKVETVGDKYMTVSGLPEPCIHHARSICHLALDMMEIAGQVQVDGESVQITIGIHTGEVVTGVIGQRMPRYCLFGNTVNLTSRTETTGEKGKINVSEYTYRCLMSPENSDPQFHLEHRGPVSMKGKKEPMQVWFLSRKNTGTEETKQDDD
# Assay: Cell-Based sGC Functional Assay (CASA Assay), cGMP generation in CHO-K1/sGC cells
# Details: maximum cGMP production of Compound A set to 100% activation, read-out: % Act. (percent activation relative to Compound A)
# From the text: sGC is a heme-containing enzyme that converts GTP to secondary messenger cGMP. Increases in cGMP levels affect several physiological processes including vasorelaxation through multiple downstream pathways. […] Heme-dependent activators (HDAs) preferentially activate sGC containing a ferrous heme group. To determine the effect of sGC activators on enzyme activity, the CASA assay was developed to monitor the generation of cGMP in a cell line that stably expresses the heterodimeric sGC protein.
# A CHO-K1 cell line stably expressing the sGC α1/β1 heterodimer was generated using a standard transfection protocol. CHO-K1 cells were transfected with plasmids pIREShyghsGCα1 and pIRESneo-hsGCβ1 simultaneously using FUGENE reagent. Clones that stably express both subunits were selected with hygromycin and neomycin for ˜2 weeks. Clone #7 was chosen for the assay and was designated CHO-K1/sGC. CHO-K1/sGC cells were maintained in F-K12 medium containing 10% heat-inactivated Fetal Bovine Serum (FBS), 100 μg/mL penicillin/streptomycin, 0.5 mg/mL hygromycin and 0.25 mg/mL G418. The cells were then cryopreserved in LN2. On the day of the assay, cells thawed and resuspended in EBSS Assay Buffer (Sigma, E3024) supplemented with 5 mM MgCl2, 10 mM HEPES (4-(2-hydroxyethyl)piperazine-1-ethanesulfonic acid) and 0.05% BSA (bovine serum albumin) (EAB) and cell density was then adjusted to 4×10^5/mL with EAB. IBMX (3-isobutyl-1-methylxanthin, 0.5 mM) was added to inhibit degradation of cGMP. Compounds were diluted from DMSO stock solutions and added to the assay at a final DMSO concentration of 2.5%. Cells were incubated with compounds in the presence and absence of 1 μM of Diethylenetriamine/nitric oxide adduct (DETA-NO; Sigma, 17018) for 1 hr at 37° C. At the end of the incubation period, the reaction was terminated and the cells were lysed with the detection reagents from Cisbio Kits. The level of intracellular cGMP was determined using an HTRF-based assay kit (CisBio, 62GM2PEC), which detects the displacement of a fluorescence labeled cGMP from its specific antibody. The cGMP produced by test compounds was directly compared to the maximum cGMP production (this value was set to equal 100% activation.) of the published sGC-HDA Compound A:
# [drawing 298] (Example 1 in WO 2010/065275, published Jun. 10, 2010). The test compounds' activities were then expressed as a percentage of Compound A, the standard in every experiment. This percent activation was calculated either in the presence or absence of DETA-NO which was then plotted. IP and maximum fold induction was derived using ADA analysis software for 4P fit.
row,SMILES,Emax
1,"CC1(c2ccc(F)c(F)c2)C(=O)Nc2nc(-c3cn4ncnc4c(CCCC(F)(F)F)n3)nc(N)c21 (stereo not shown) [Example 38B, 4-amino-5-(3,4-difluorophenyl)-5-methyl-2-(8-(4,4,4-trifluorobutyl)-[1,2,4]triazolo[1,5-a]pyrazin-6-yl)-5H-pyrrolo[2,3-d]pyrimidin-6(7H)-one]",120%
2,"COc1ccc(C2(C)C(=O)Nc3nc(-c4cn5ncnc5c(CCCC(F)(F)F)n4)nc(N)c32)nc1 (stereo not shown) [Example 40A, 4-amino-5-(5-methoxypyridin-2-yl)-5-methyl-2-(8-(4,4,4-trifluorobutyl)-[1,2,4]triazolo[1,5-a]pyrazin-6-yl)-5H-pyrrolo[2,3-d]pyrimidin-6(7H)-one]",130%
3,"CC1(c2ccc(F)c(Cl)c2)C(=O)Nc2nc(-c3cn4ncnc4c(CCCC(F)(F)F)n3)nc(N)c21 (stereo not shown) [Example 42B, 4-amino-5-(3-chloro-4-fluorophenyl)-5-methyl-2-(8-(4,4,4-trifluorobutyl)-[1,2,4]triazolo[1,5-a]pyrazin-6-yl)-5H-pyrrolo[2,3-d]pyrimidin-6(7H)-one]",82%
4,"CC1(c2ccc(C(F)F)cn2)C(=O)Nc2nc(-c3cn4ncnc4c(CCCC(F)(F)F)n3)nc(N)c21 (stereo not shown) [Example 43B, 4-amino-5-(5-(difluoromethyl)pyridin-2-yl)-5-methyl-2-(8-(4,4,4-trifluorobutyl)-[1,2,4]triazolo[1,5-a]pyrazin-6-yl)-5H-pyrrolo[2,3-d]pyrimidin-6(7H)-one]",69%
5,"CC1(c2ccc(C#N)cn2)C(=O)Nc2nc(-c3cn4ncnc4c(CCCC(F)(F)F)n3)nc(N)c21 (stereo not shown) [Example 48A, 6-(4-amino-5-methyl-6-oxo-2-(8-(4,4,4-trifluorobutyl)-[1,2,4]triazolo[1,5-a]pyrazin-6-yl)-6,7-dihydro-5H-pyrrolo[2,3-d]pyrimidin-5-yl)nicotinonitrile]",85%
6,"CC1(c2cnc(C(F)(F)F)cn2)C(=O)Nc2nc(-c3cn4ncnc4c(CCCC(F)(F)F)n3)nc(N)c21 (stereo not shown) [Example 50B, 4-amino-5-methyl-2-(8-(4,4,4-trifluorobutyl)-[1,2,4]triazolo[1,5-a]pyrazin-6-yl)-5-(5-(trifluoromethyl)pyrazin-2-yl)-5H-pyrrolo[2,3-d]pyrimidin-6(7H)-one]",191%
7,"CCCc1nc(-c2nc(N)c3c(n2)NC(=O)C3(C)c2ccc(Cl)cc2)cn2ncnc12 (stereo not shown) [Example 53A, 4-amino-5-(4-chlorophenyl)-5-methyl-2-(8-propyl-[1,2,4]triazolo[1,5-a]pyrazin-6-yl)-5H-pyrrolo[2,3-d]pyrimidin-6(7H)-one]",122%
8,"CCCc1nc(-c2nc(N)c3c(n2)NC(=O)C3(c2ccc(Cl)cn2)C2CC2)cn2ncnc12 (stereo not shown) [Example 57A, 4-amino-5-(5-chloropyridin-2-yl)-5-cyclopropyl-2-(8-propyl-[1,2,4]triazolo[1,5-a]pyrazin-6-yl)-5H-pyrrolo[2,3-d]pyrimidin-6(7H)-one]",119%
9,"CCCc1nc(-c2nc(N)c3c(n2)NC(=O)C3(c2ccc(F)c(F)c2)C2CC2)cn2ncnc12 (stereo not shown) [Example 58A, 4-amino-5-cyclopropyl-5-(3,4-difluorophenyl)-2-(8-propyl-[1,2,4]triazolo[1,5-a]pyrazin-6-yl)-5H-pyrrolo[2,3-d]pyrimidin-6(7H)-one]",169%
10,"CCCCc1nc(-c2nc(N)c3c(n2)NC(=O)C3(C)c2ccc(Cl)c(F)c2)cn2ncnc12 (stereo not shown) [Example 62B, 4-amino-2-(8-butyl-[1,2,4]triazolo[1,5-a]pyrazin-6-yl)-5-(4-chloro-3-fluorophenyl)-5-methyl-5H-pyrrolo[2,3-d]pyrimidin-6(7H)-one]",267%
11,"CCCCc1nc(-c2nc(N)c3c(n2)NC(=O)C3(C)c2ccc(Cl)cc2)cn2ncnc12 (stereo not shown) [Example 63A, 4-amino-2-(8-butyl-[1,2,4]triazolo[1,5-a]pyrazin-6-yl)-5-(4-chlorophenyl)-5-methyl-5H-pyrrolo[2,3-d]pyrimidin-6(7H)-one]",187%
12,"CCCCc1nc(-c2nc(N)c3c(n2)NC(=O)C3(C)c2ccc(F)c(F)c2)cn2ncnc12 (stereo not shown) [Example 64B, 4-amino-2-(8-butyl-[1,2,4]triazolo[1,5-a]pyrazin-6-yl)-5-(3,4-difluorophenyl)-5-methyl-5H-pyrrolo[2,3-d]pyrimidin-6(7H)-one]",90%
13,"CCCCc1nc(-c2nc(N)c3c(n2)NC(=O)C3(c2ccc(Cl)cn2)C2CC2)cn2ncnc12 (stereo not shown) [Example 68A, 4-amino-2-(8-butyl-[1,2,4]triazolo[1,5-a]pyrazin-6-yl)-5-(5-chloropyridin-2-yl)-5-cyclopropyl-5H-pyrrolo[2,3-d]pyrimidin-6(7H)-one]",113%

# Further lines, results first:
row,Emax,SMILES
1,67%,"Cc1ccc(C2(C)C(=O)Nc3nc(-c4cn5ncnc5c(CCCC(F)(F)F)n4)nc(N)c32)nc1 (stereo not shown) [Example 46B, 4-amino-5-methyl-5-(5-methylpyridin-2-yl)-2-(8-(4,4,4-trifluorobutyl)-[1,2,4]triazolo[1,5-a]pyrazin-6-yl)-5H-pyrrolo[2,3-d]pyrimidin-6(7H)-one]"
2,96%,"CCCc1nc(-c2nc(N)c3c(n2)NC(=O)[C@@]3(C)c2ccc(F)cc2)cn2ncnc12 [Example 52A, (S)-4-amino-5-(4-fluorophenyl)-5-methyl-2-(8-propyl-[1,2,4]triazolo[1,5-a]pyrazin-6-yl)-5,7-dihydro-6H-pyrrolo[2,3-d]pyrimidin-6-one]"
3,210%,"CCCc1nc(-c2nc(N)c3c(n2)NC(=O)C3(C)c2ccc(F)cn2)cn2ncnc12 (stereo not shown) [Example 54B, 4-amino-5-(5-fluoropyridin-2-yl)-5-methyl-2-(8-propyl-[1,2,4]triazolo[1,5-a]pyrazin-6-yl)-5H-pyrrolo[2,3-d]pyrimidin-6(7H)-one]"
4,99%,CCCc1nc(-c2nc(N)c3c(n2)NC(=O)C3(C)c2ccc(Cl)c(F)c2)cn2ncnc12 (stereo not shown) [Example 55B]
5,119%,"CCCc1nc(-c2nc(N)c3c(n2)NC(=O)C3(c2ccc(F)cn2)C2CC2)cn2ncnc12 (stereo not shown) [Example 59A, 4-amino-5-cyclopropyl-5-(5-fluoropyridin-2-yl)-2-(8-propyl-[1,2,4]triazolo[1,5-a]pyrazin-6-yl)-5H-pyrrolo[2,3-d]pyrimidin-6(7H)-one]"
6,162%,"CCCCc1nc(-c2nc(N)c3c(n2)NC(=O)C3(c2ccc(F)cn2)C2CC2)cn2ncnc12 (stereo not shown) [Example 66A, 4-amino-2-(8-butyl-[1,2,4]triazolo[1,5-a]pyrazin-6-yl)-5-cyclopropyl-5-(5-fluoropyridin-2-yl)-5H-pyrrolo[2,3-d]pyrimidin-6(7H)-one]"
